Results on 14 compounds are retold here after publication PMC3985256, “Synthesis of Brominated 2-Phenitidine Derivatives as Valuable Inhibitors of Cholinesterases for the Treatment of Alzheimer’s Disease” (Iranian Journal of Pharmaceutical Research : IJPR, 2014).

Each structure is given as a SMILES string. Read-outs that look alike come from different tables or passages of the source.

One may read the IC50 as the point on the concentration scale where inhibition reaches its midpoint. For orientation: inhibition means the percentage by which the read-out fell short of the control.

Holding throughout (type): biochemical
Assay [1] concerns the target T1, lipoxygenase (LOX) (Glycine max, UniProt P08170).
T1 sequence (P08170 1-839): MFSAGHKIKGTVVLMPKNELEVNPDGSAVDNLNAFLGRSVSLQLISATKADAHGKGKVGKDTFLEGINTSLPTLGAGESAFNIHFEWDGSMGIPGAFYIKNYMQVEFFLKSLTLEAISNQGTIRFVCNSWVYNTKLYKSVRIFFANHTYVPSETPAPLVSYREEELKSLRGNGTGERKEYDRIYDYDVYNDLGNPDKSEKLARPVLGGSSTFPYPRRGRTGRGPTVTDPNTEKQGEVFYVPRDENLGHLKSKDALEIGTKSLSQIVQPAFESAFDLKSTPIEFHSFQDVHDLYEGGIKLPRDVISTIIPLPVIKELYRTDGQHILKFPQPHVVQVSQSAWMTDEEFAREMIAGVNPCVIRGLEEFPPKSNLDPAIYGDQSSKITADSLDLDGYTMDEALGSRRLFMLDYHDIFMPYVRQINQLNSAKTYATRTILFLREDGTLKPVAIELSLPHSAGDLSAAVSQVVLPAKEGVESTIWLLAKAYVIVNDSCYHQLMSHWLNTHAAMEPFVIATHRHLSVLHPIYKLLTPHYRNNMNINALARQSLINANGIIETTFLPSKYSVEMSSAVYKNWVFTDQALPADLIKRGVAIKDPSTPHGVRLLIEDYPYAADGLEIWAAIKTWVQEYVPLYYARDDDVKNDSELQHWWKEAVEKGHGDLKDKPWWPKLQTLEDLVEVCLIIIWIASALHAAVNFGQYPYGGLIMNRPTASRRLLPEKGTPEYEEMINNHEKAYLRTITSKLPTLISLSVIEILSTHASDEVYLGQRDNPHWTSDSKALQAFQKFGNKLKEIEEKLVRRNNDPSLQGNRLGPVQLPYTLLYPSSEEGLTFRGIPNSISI
Kind of assay: Lipoxygenase inhibition assay. As to conditions: n = 3, mean ± sem; for inhibition at 500 µM: 0.5 mM. On the procedure:
Lipoxygenase activity was assayed according to the reported method ([18]-[20]) but with slight modifications. A total volume of 200 μL assay mixture contained 150 μL sodium phosphate buffer (100 mM, pH 8.0), 10 μL test compound and 15 μL purified lipoxygenase enzyme (Sigma, USA). The contents were mixed and pre-read at 234 nm and pre-incubated for 10 min at 25 °C. The reaction was initiated by the addition of 25 μL substrate solution. The change in absorbance was observed after 6 min at 234 nm. Synergy HT (BioTek, USA) 96-well plate reader was used in all experiments. All reactions were performed in triplicates. The positive and negative controls were included in the assay. Baicalein (0.5 mM well^-1) was used as a positive control. The percentage inhibition was calculated by formula as follows.

Assay [2] has as its target acetylcholinesterase (AChE) (Homo sapiens, UniProt P22303). The experiment in a line: Acetylcholinesterase inhibition assay. The following applies: for inhibition at 500 µM: read-out: Acetylcholinestrase (AChE) inhibition (%) at 0.5 mM. On the procedure: The AChE inhibition activity was performed according to the reported method ([14]) with slight modifications. Total volume of the reaction mixture was 100 μL. It contained 60 μL Na2HPO4 buffer with concentration of 50 mM and pH 7.7. Ten μL test compound (0.5 mM well^-1) was added, followed by the addition of 10 μL (0.005 unit well^-1) enzyme. The contents were mixed and pre-read at 405 nm. Then contents were pre-incubated for 10 min at 37 °C. The reaction was initiated by the addition of 10 μL of 0.5 mM well^-1 substrate (acetylthiocholine iodide), followed by the addition of 10 μL DTNB (0.5 mM well^-1). After 15 min of incubation at 37 °C, absorbance was measured at 405 nm. Synergy HT (BioTek, USA) 96-well plate reader was used in all experiments. All experiments were carried out with their respective controls in triplicate. […] The percent inhibition was calculated by the help of following equation )[19] (.
(§1) Inhibition %=Control-Test/Control×100
(§2) IC50 values (concentration at which there is 50% enzyme inhibition) of compounds were calculated using EZ-Fit Enzyme kinetics software (Perella Scientific Inc. Amherst, USA).

Assay [3] deals with butyrylcholinesterase (BChE) (Homo sapiens, UniProt P06276). Kind of assay: Butyrylcholinesterase inhibition assay. The following applies: for inhibition at 500 µM: read-out: Butyrylcholinesterase (BChE) inhibition (%) at 0.5 mM. The procedure:
The BChE inhibition activity was performed according to the reported method ([14],[17]) with slight modifications. Total volume of the reaction mixture was 100 μL containing 60 μL, Na2HPO4 buffer, 50 mM and pH 7.7. Ten μL test compound 0.5 mM well^-1, followed by the addition of 10 μL (0. 5 unit well^-1) BChE. The contents were mixed and pre-read at 405 nm. Then contents were pre-incubated for 10 min at 37 °C. The reaction was initiated by the addition of 10 μL of 0.5 mM well^-1 substrate (butyrylthiocholine bromide), followed by the addition of 10 μL DTNB (0.5 mM well^-1). After 15 min of incubation at 37 °C, absorbance was measured at 405 nm. Synergy HT (BioTek, USA) 96-well plate reader was used in all experiments. All experiments were carried out with their respective controls in triplicate. […] The percent inhibition was calculated by the help of following equation.
as §1, §2

[4] abbreviates: n = 3, mean ± sem, read-out: Butyrylcholinesterase (BChE) (IC50).
The mark [5] stands for this setting: n = 3, mean ± sem, read-out: Acetylcholinestrase (AChE) (IC50).

Chain of butyrylcholinesterase (BChE) (P06276 29-602): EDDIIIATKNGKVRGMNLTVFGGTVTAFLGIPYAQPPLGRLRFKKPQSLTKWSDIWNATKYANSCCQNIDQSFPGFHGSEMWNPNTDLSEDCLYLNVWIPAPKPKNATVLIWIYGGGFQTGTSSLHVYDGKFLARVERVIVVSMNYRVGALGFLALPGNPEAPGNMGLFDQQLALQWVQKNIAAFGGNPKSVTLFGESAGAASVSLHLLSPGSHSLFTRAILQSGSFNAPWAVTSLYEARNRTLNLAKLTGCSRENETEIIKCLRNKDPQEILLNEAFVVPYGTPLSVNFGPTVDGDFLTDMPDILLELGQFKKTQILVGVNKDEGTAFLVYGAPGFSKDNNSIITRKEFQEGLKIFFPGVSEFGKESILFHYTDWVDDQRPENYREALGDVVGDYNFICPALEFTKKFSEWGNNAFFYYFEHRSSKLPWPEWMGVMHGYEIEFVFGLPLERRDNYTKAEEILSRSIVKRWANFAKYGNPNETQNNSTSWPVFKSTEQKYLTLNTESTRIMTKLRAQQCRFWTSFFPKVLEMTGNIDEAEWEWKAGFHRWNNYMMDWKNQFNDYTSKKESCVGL
Chain of acetylcholinesterase (AChE) (P22303 32-614): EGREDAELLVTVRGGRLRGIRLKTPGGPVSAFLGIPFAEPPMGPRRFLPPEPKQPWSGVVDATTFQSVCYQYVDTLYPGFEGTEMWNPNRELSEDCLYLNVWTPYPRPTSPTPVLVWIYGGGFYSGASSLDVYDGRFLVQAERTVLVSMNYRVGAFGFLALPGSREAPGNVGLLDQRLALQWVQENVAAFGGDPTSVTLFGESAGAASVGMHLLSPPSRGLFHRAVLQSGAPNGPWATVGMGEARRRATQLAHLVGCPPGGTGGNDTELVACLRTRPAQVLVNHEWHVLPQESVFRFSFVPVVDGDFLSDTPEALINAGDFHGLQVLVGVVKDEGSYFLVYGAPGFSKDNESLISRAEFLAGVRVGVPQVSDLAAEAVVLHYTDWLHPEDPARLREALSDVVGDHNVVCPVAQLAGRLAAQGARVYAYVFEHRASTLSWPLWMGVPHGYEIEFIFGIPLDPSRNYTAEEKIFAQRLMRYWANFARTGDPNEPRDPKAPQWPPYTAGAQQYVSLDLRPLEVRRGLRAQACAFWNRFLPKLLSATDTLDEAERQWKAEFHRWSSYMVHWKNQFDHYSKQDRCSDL

`O=c1cc(-c2ccccc2)oc2cc(O)c(O)c(O)c12` [Baicalein, reference compound]: the IC50 in assay [1] is 22.4 ± 1.3 µM.
With `CCOc1cc(Br)c(Br)cc1NS(=O)(=O)c1ccccc1` [Compound 4, N-(4,5-dibromo-2-ethoxyphenyl)benzenesulfonamide], the inhibition at 500 µM in assay [2] (0.5 mM, n = 3, mean ± sem) stood at 44.15 ± 0.19%; in assay [3] (0.5 mM, n = 3, mean ± sem), 80.75 ± 0.17%; in assay [1], 11.6 ± 0.27%. The “Acetylcholinestrase (AChE) (IC50)” value in assay [2] (n = 3, mean ± sem) is “NIL”. The IC50 in assay [3] (setting [4]) worked out at 70.21 ± 0.18 µM. Moreover, in assay [1], the “Lipoxygenase (LOX) (IC50)” value was “NIL”.
Take `CCOc1cc(Br)c(Br)cc1N(CC)S(=O)(=O)c1ccccc1` [Compound 6a, N-Ethyl-N-(4,5-dibromo-2-ethoxyphenyl)benzenesulfonamide]: the inhibition at 500 µM in assay [2] (0.5 mM, n = 3, mean ± sem) is 28.9 ± 0.31%; in assay [3] (0.5 mM, n = 3, mean ± sem), 85.33 ± 0.26%; in assay [1], 81.75 ± 0.71%. Moreover, in assay [2] (n = 3, mean ± sem), the “Acetylcholinestrase (AChE) (IC50)” value is reported as “NIL”. Besides, the IC50 in assay [3] (setting [4]) is 54.9 ± 0.85 µM.
As to `CCOc1cc(Br)c(Br)cc1N(C(C)C)S(=O)(=O)c1ccccc1` [Compound 6b, N-Isopropyl -N-(4,5-dibromo-2-ethoxyphenyl)benzenesulfonamide], the inhibition at 500 µM came out at 79.07 ± 0.38% in assay [2] (0.5 mM, n = 3, mean ± sem); 56.57 ± 0.55% in assay [3] (0.5 mM, n = 3, mean ± sem); 83.54 ± 0.33% in assay [1]. For the same compound, the half-inhibitory concentration (IC50) in assay [2] (setting [5]) was 87.31 ± 0.11 µM; in assay [3] (setting [4]), greater than 300 µM.
With `C=CCN(c1cc(Br)c(Br)cc1OCC)S(=O)(=O)c1ccccc1` [Compound 6c, N-Allyl -N-(4,5-dibromo-2-ethoxyphenyl)benzenesulfonamide], the inhibition at 500 µM in assay [2] (0.5 mM, n = 3, mean ± sem) was determined as 72.22 ± 0.55%; in assay [3] (0.5 mM, n = 3, mean ± sem), 80.75 ± 0.68%; in assay [1] it was 66.26 ± 0.54%. In addition, the IC50 in assay [2] (setting [5]) stood at 143.91 ± 0.08 µM; in assay [3] (setting [4]), 68.41 ± 0.21 µM.
With `CCOc1cc(Br)c(Br)cc1N(CCBr)S(=O)(=O)c1ccccc1` [Compound 6d], the IC50 amounted to 131.9 ± 0.16 µM in assay [2] and 45.31 ± 0.17 µM in assay [3]. Further, the results for the inhibition at 500 µM in assay [2], in assay [3] and in assay [1] were 73.21 ± 0.71%, 87.2 ± 0.96% and 83.95 ± 0.22%, respectively.
`CCOc1cc(Br)c(Br)cc1N(Cc1ccccc1)S(=O)(=O)c1ccccc1` [Compound 6e, N-Benzyl-N-(4,5-dibromo-2-ethoxyphenyl)benzenesulfonamide]: the inhibition at 500 µM in assay [2] (0.5 mM, n = 3, mean ± sem) was 79.27 ± 0.63%; in assay [3] (0.5 mM, n = 3, mean ± sem), 85.92 ± 0.28%; in assay [1], 31.29 ± 0.18%. Further, the figures for the IC50 in assay [2] (setting [5]) and in assay [3] (setting [4]) were 88.21 ± 0.17 µM and 58.71 ± 0.08 µM, respectively. In assay [1], the “Lipoxygenase (LOX) (IC50)” value is listed as “NIL”.
On to `CCOc1cc(Br)c(Br)cc1N(CCc1ccccc1)S(=O)(=O)c1ccccc1` [Compound 6f, N-Phenylethyl-N-(4,5-dibromo-2-ethoxyphenyl)benzenesulfonamide], for which the inhibition at 500 µM in assay [2] (0.5 mM, n = 3, mean ± sem) is 77.58 ± 0.66%; in assay [3] (0.5 mM, n = 3, mean ± sem), 88.73 ± 0.14%; in assay [1], 90.02 ± 0.37%. For the same compound, the IC50 came out at 86.41 ± 0.51 µM in assay [2] (setting [5]) and 53.41 ± 0.51 µM in assay [3] (setting [4]).
For `CCOc1cc(Br)c(Br)cc1N(CCCc1ccccc1)S(=O)(=O)c1ccccc1` [Compound 6g, N-Phenylpropyl-N-(4,5-dibromo-2-ethoxyphenyl)benzenesulfonamide] the same measures were 77.18 ± 0.33%, 90.14 ± 0.77%, 75.21 ± 0.11%, 158.41 ± 0.11 µM and 57.5 ± 0.63 µM.
Turning to `CCOc1cc(Br)c(Br)cc1N(Cc1ccc(Br)cc1)S(=O)(=O)c1ccccc1` [Compound 6h], the inhibition at 500 µM in assay [2] (0.5 mM, n = 3, mean ± sem) is 74.31 ± 0.11%; in assay [3] (0.5 mM, n = 3, mean ± sem) it was 87.91 ± 0.25%; in assay [1], 37.04 ± 0.28%. Also, the IC50 is 145.6 ± 0.21 µM in assay [2] (setting [5]) and 60.11 ± 0.34 µM in assay [3] (setting [4]). The “Lipoxygenase (LOX) (IC50)” value in assay [1] was “NIL”.
Take `CCOc1cc(Br)c(Br)cc1N(Cc1cccc(Cl)c1)S(=O)(=O)c1ccccc1` [Compound 6i]: the inhibition at 500 µM was determined as 82.54 ± 0.36% in assay [2] (0.5 mM, n = 3, mean ± sem); 91.78 ± 0.33% in assay [3] (0.5 mM, n = 3, mean ± sem); 49.6 ± 0.64% in assay [1]. Also, the IC50 came out at 73.9 ± 0.87 µM in assay [2] (setting [5]) and 57.11 ± 0.46 µM in assay [3] (setting [4]). The “Lipoxygenase (LOX) (IC50)” value in assay [1] is on record as “NIL”.
In the case of `CCOc1cc(Br)c(Br)cc1N(Cc1ccc(F)cc1)S(=O)(=O)c1ccccc1` [Compound 6j], the inhibition at 500 µM was 81.45 ± 0.12% in assay [2] (0.5 mM, n = 3, mean ± sem); 87.21 ± 0.31% in assay [3] (0.5 mM, n = 3, mean ± sem); 51.23 ± 0.31% in assay [1]. Further, the 50% inhibitory concentration (IC50) in assay [2] (setting [5]) amounted to 71.31 ± 0.09 µM; in assay [3] (setting [4]) it was 60.2 ± 0.66 µM.
In the case of `CCOc1cc(Br)c(Br)cc1N(Cc1ccccc1Cl)S(=O)(=O)c1ccccc1` [Compound 6k], the inhibition at 500 µM in assay [2] (0.5 mM, n = 3, mean ± sem) was 86.71 ± 0.22%; in assay [3] (0.5 mM, n = 3, mean ± sem), 93.66 ± 0.82%; in assay [1], 33.23 ± 0.22%. The IC50 in assay [2] (setting [5]) amounted to 52.41 ± 0.27 µM; in assay [3] (setting [4]), 42.21 ± 0.25 µM. Besides, in assay [1], the “Lipoxygenase (LOX) (IC50)” value was “NIL”.
As to `CCOc1cc(Br)c(Br)cc1N(Cc1ccc(Cl)cc1)S(=O)(=O)c1ccccc1` [Compound 6l], the inhibition at 500 µM in assay [2] (0.5 mM, n = 3, mean ± sem) amounted to 82.94 ± 0.15%; in assay [3] (0.5 mM, n = 3, mean ± sem) it was 66.31 ± 0.11%; in assay [1] it was 55.5 ± 0.84%. The half-maximal inhibitory concentration (IC50) was found to be 126.61 ± 0.02 µM in assay [2] (setting [5]) and 190.31 ± 0.17 µM in assay [3] (setting [4]).
